The test system of one assay is S. coelicolor M145. Nature of the assay: LC-MS analysis of peptidoglycan precursors. It is filed as cell-based, Streptomyces coelicolor. Particulars: M145 grown with 10 μg/ml vancomycin. The method, then: (§1) In order to get more insights into the synthesis of vancomycin-sensitive (i.e., wild-type) or the alternate vancomycin-resistant peptidoglycan, the pool of peptidoglycan precursors was analyzed by Liquid Chromatography coupled to Mass Spectrometry (LC-MS). When cells produce wild-type PG, only the MurNac-pentapeptide with a D-Ala-D-Ala terminus are detected, while vancomycin-resistant PG precursors have a D-Ala-D-Lac terminus. To analyze the precursors produced in S. coelicolor M145 and its mutant derivatives LAG1 (Δddl) and LAG2 (Δddl vanS::IS466A) in the presence or absence of vancomycin, the strains were grown until exponential phase, after which the cultures were harvested, washed and the precursors extracted with 5% TCA. The supernatants were desalted, concentrated and analyzed by LC-MS (see Materials and Methods section).
(§2) For the precursor isolation and identification, a modification of the method described previously by Hong and colleagues (Hong et al., 2004) was used. 10 μg vancomycin was added to the strains at the moment of inoculation. The strains were grown in NMMP (1% (w/v) Mannitol, 50 mM MgCl2) until mid-log phase (OD-0.3-0.4) and mycelia were harvested by centrifugation at 4° C. and washed in 0.9% NaCl. […] The elution was monitored at 254 nm and monitored by the sizes eluted (1193.8-1195.3).

The test system of assay [1] is S. coelicolor LAG1 (ddl null mutant). Nature of the assay: LC-MS analysis of peptidoglycan precursors. The class given is cell-based, Streptomyces coelicolor. Particulars: LAG1 grown in the presence of vancomycin. The method, then:
as §1, §2

Assay [2] has as its system vanA-positive Enterococcus faecium clinical isolate vanA4. The assay is described as follows: MIC of vancomycin by serial dilution in 96-well plates with or without D-Ala. The class given is cell-based. Particulars: for MIC: Enterococcus faecium. The method, then: (§3) Having established the important role of D-Ala in enhancing the efficacy of vancomycin against vancomycin-resistant S. coelicolor cells, next, its effect on the resistance of clinical isolates of Enterococcus faecium, which were vanA-positive strains, was assessed. MIC values were calculated by testing a serial dilution of vancomycin in the presence or absence of D-Ala in triplicate (Table 3).
(§4) The MIC was determined by measurement of the OD600 or by visual assessment, following the Clinical Laboratory and Standards Institute (CLSI) guidelines. […] This value compares to intermediate instead of total resistance. The strains were serially diluted in a 96-well plate and growth was assayed at OD600. The steps down refer to CSLI guidelines for clinical MIC measurements.
(§5) Five vanA-positive Enterococcus faecium strains were collected in 2011 and 2014 from patients in the Erasmus University Medical Centre, Rotterdam, The Netherlands. Presence of the vanA gene was confirmed by real-time PCR with the LIGHTCYCLER® 480 instrument (Roche Diagnostics, Almere, The Netherlands) with the primers vanA F1 and vanA R1, and the vanA probe. The resistance profile of these isolates was determined as MIC values using the VITEK II (BioMerieux) system AST-P586. To determine the MIC of vancomycin against E. faecium, cells were grown overnight on Trypticase Soy Agar (TSA) blood agar plates (Becton Dickinson, Breda, The Netherlands) and suspended in 0.9% NaCl until OD600 0.5 (±0.05). Of this suspension, 10 μl was dispensed into wells of sterile flat-bottom 96-well polystyrene tissue culture plates (Greiner Bio-One, Alphen aan Den Rijn, The Netherlands) containing serial dilutions of vancomycin in 190 μl of a 1:1 mixture of Fetal Bovine Serum (FBS) (Gibco, Bleiswijk, The Netherlands) and Iscove's Modified Dulbecco's Medium (IMDM) (without phenolred, Gibco, Bleiswijk, The Netherlands), and in the presence or absence of 50 mM D-alanine (Alfa Aesar, Ward Hill, Mass., USA). Plates were incubated for 18-24 hours at 37° C. and MIC values determined visually following the CLSI guidelines, or by spectrophotometer at 600 nm.

Assay [3] has as its system vanA-positive Enterococcus faecium clinical isolate vanA1. The description is as above. It is filed as cell-based. Particulars: for MIC: Enterococcus faecium. As to the method:
as §3, §4, §5

For assay [4], the system named is vanA-positive Enterococcus faecium clinical isolate vanA3. Described as above. The class given is cell-based. Particulars: for MIC: Enterococcus faecium. As to the method: as §3, §4, §5
Assay [5] concerns vanA-positive Enterococcus faecium clinical isolate vanA10. The description is as above. It is filed as cell-based. Particulars: for MIC: Enterococcus faecium. The method, then:
as §3, §4, §5

For assay [6], the system named is vanA-positive Enterococcus faecium clinical isolate vanA2. Described as above. The class given is cell-based. Particulars: for MIC: Enterococcus faecium. As to the method:
as §3, §4, §5

Read-outs that look alike come from different tables or passages of the source.

Turning to `CN[C@H](CC(C)C)C(=O)N[C@H]1C(=O)N[C@@H](CC(N)=O)C(=O)N[C@H]2C(=O)N[C@H]3C(=O)N[C@H](C(=O)N[C@H](C(=O)O)c4cc(O)cc(O)c4-c4cc3ccc4O)[C@H](O)c3ccc(c(Cl)c3)Oc3cc2cc(c3O[C@@H]2O[C@H](CO)[C@@H](O)[C@H](O)[C@H]2O[C@H]2C[C@](C)(N)[C@H](O)[C@H](C)O2)Oc2ccc(cc2Cl)[C@H]1O` [vancomycin], the “precursors of the vancomycin-insensitive variant (D-Ala-D-Lac)” value in the assay on S. coelicolor M145 worked out at 91.5%. The “precursors containing the terminal D-Ala-D-Lac dipeptide” value in assay [1] is on record as 95.7%. For the same molecule, the MIC – broadly, the lowest concentration found to suppress growth – in assay [2] (vanA4, 50 mM D-Ala, read-out: MIC with 50 mM D-Ala) was determined as 128 µg/mL; in assay [2] (vanA4, read-out: MIC without D-Ala), 4100 µg/mL; in assay [3] (vanA1, 50 mM D-Ala, read-out: MIC with 50 mM D-Ala), 256 µg/mL; in assay [3] (vanA1, read-out: MIC without D-Ala), 4100 µg/mL; in assay [4] (vanA3, 50 mM D-Ala, read-out: MIC with 50 mM D-Ala), 128 µg/mL; in assay [4] (vanA3, read-out: MIC without D-Ala), 4100 µg/mL. For the same molecule, the MIC worked out at 16 µg/mL in assay [5] (vanA10, 50 mM D-Ala, read-out: MIC with 50 mM D-Ala); 2050 µg/mL in assay [5] (vanA10, read-out: MIC without D-Ala); 256 µg/mL in assay [6] (vanA2, 50 mM D-Ala, read-out: MIC with 50 mM D-Ala); 4100 µg/mL in assay [6] (vanA2, read-out: MIC without D-Ala). The “reduction of MIC” value is around 32 in assay [2] (vanA4, 50 mM D-Ala, approximation based on 2-fold dilution steps); around 16 in assay [3] (vanA1, 50 mM D-Ala, approximation based on 2-fold dilution steps); around 32 in assay [4] (vanA3, 50 mM D-Ala, approximation based on 2-fold dilution steps); around 128 in assay [5] (vanA10, 50 mM D-Ala, approximation based on 2-fold dilution steps); around 16 in assay [6] (vanA2, 50 mM D-Ala, approximation based on 2-fold dilution steps).

The record behind these values is patent US20190000789A1, “COMPOSITION AND METHOD FOR TREATING INFECTIONS CAUSED BY VANCOMYCIN-RESISTANT INFECTIOUS AGENTS IN A SUBJECT” (priority 2015, published 2019).
